Literature values in US12290525B2, “5 alpha dihydrotestosterone formulations and associated methods of use and treatment” (priority 2022, dated 2025).

How the values were obtained:
[1] = tested on: GABAA receptor
[2] = biological target: estrogen receptor (ER) subtype ERβ (Homo sapiens, UniProt Q92731)
Sequence of estrogen receptor (ER) subtype ERβ (Q92731 whole entry): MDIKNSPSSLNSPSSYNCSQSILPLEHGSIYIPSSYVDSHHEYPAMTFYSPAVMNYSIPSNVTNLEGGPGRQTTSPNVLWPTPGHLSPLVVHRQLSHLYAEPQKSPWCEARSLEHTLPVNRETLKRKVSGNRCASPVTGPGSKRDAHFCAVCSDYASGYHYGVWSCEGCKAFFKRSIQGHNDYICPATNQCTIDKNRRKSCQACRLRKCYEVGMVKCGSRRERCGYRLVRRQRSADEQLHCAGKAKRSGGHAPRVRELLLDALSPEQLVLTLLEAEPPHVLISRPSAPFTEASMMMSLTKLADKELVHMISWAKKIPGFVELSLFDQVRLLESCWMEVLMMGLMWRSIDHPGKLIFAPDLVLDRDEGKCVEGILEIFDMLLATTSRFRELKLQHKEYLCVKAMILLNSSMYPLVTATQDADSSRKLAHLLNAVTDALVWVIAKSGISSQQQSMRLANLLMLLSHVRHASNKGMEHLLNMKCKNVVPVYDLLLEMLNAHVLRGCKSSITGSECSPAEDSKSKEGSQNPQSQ

Q: Which “activity at the GABAA receptor” value [1] does the source give for `C[C@]12CC[C@@H](O)C[C@@H]1CC[C@@H]1[C@@H]2CC[C@]2(C)[C@@H](O)CC[C@@H]12` [3α-Androstanediol, 3α-androstanediol] here?
A: potent positive allosteric modulator

Q: For `C[C@]12CC[C@H](O)C[C@@H]1CC[C@@H]1[C@@H]2CC[C@]2(C)[C@@H](O)CC[C@@H]12` [3β-androstanediol], which “activity at ERβ” value [2] is on record?
A: potent and selective agonist
